Measured values taken from patent US11267814B2, “Compounds for bone growth” (OsteoQC Inc., priority 2013, dated 2022).
Structures can show the parent of a compound that is named as a salt.

Legend:
[1] = system: MC3T3-E1 (mouse calvarial) osteoblast cells; experiment: Rescue of sclerostin inhibition of mineralization (total calcium); assay type: cell-based; conditions: Mus musculus, MC3T3-E1; IC100 class; calcium concentration, MC3T3 osteoblast cells treated with sclerostin; read-out: Sclerostin Inhibition of Mineralization; improvement over sclerostin alone.
Description: Mineralization (crystalline calcium phosphate formation) represents an in vitro model of bone formation. […] Following the protocol described in Li et al., Compounds were assayed for their ability to rescue the inhibition of mineralization by sclerostin in MC3T3 osteoblast cells.

sclerostin = biological target: T1, sclerostin (Homo sapiens, UniProt Q9BQB4); experiment: Modulation of sclerostin/Wnt activity (sclerostin inhibition assay): restoring Wnt3a signaling in the presence of sclerostin; assay type: cell-based; conditions: IC100 class; Wnt3a signaling in human embryonic cells in presence of sclerostin
T1 construct: host or cells: human embryonic cells (reporter cells)
T1 sequence (Q9BQB4 24-213): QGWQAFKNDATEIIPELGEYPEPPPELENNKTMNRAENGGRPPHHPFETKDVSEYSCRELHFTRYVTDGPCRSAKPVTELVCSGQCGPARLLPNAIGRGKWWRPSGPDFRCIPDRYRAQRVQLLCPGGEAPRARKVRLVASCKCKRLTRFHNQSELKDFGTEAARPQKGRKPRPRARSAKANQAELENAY

hERG potassium channel = biological target: T2, hERG potassium channel (Homo sapiens, UniProt Q12809); experiment: hERG automated patch clamp assay; assay type: cell-based; conditions: inhibition of hERG tail current, 5 minutes at room temperature, CHO-K1 cells stably expressing hERG
T2 construct: expressed in transfected cells; host or cells: CHO-K1
Description: One major type of cardiovascular toxicity associated with pharmaceutical drugs is caused by drug effects on cardiac ion channels like hERG. Drug-induced inhibition of hERG results in a prolonged QT interval, which can lead to a life-threatening ventricular arrhythmia. Therefore, the inhibitory effect of compounds described in Examples 1-46 on the hERG potassium channel was evaluated using an automated patch clamp assay as described in Mathes, C. (2006) Expert Opin. Ther. Targets, 10 (2): 319-327. CHO-K1 cells stably expressing hERG channels were used.

MC3T3 osteoblast cells = experiment: Osteocalcin (OCN) secretion, bone formation marker, ELISA; assay type: cell-based, mouse; conditions: Mus musculus; IC100 class; OCN secreted from MC3T3 osteoblast cells treated with sclerostin
Description: Bone formation can also be assayed in vitro or in vivo using a serum marker for bone formation, osteocalcin (OCN), available from Biomedical Tecnhnologies, Inc. (Stoughton, Mass.). Following the manufacturer's protocol for the mouse osteocalcin EIA kit (described at the website www.btiinc.com/page/cata2.html#mouse_osteocalcin), bone formation in MC3T3 osteoblast cells was assayed by measuring the concentration of OCN.

T2 sequence (Q12809 whole entry): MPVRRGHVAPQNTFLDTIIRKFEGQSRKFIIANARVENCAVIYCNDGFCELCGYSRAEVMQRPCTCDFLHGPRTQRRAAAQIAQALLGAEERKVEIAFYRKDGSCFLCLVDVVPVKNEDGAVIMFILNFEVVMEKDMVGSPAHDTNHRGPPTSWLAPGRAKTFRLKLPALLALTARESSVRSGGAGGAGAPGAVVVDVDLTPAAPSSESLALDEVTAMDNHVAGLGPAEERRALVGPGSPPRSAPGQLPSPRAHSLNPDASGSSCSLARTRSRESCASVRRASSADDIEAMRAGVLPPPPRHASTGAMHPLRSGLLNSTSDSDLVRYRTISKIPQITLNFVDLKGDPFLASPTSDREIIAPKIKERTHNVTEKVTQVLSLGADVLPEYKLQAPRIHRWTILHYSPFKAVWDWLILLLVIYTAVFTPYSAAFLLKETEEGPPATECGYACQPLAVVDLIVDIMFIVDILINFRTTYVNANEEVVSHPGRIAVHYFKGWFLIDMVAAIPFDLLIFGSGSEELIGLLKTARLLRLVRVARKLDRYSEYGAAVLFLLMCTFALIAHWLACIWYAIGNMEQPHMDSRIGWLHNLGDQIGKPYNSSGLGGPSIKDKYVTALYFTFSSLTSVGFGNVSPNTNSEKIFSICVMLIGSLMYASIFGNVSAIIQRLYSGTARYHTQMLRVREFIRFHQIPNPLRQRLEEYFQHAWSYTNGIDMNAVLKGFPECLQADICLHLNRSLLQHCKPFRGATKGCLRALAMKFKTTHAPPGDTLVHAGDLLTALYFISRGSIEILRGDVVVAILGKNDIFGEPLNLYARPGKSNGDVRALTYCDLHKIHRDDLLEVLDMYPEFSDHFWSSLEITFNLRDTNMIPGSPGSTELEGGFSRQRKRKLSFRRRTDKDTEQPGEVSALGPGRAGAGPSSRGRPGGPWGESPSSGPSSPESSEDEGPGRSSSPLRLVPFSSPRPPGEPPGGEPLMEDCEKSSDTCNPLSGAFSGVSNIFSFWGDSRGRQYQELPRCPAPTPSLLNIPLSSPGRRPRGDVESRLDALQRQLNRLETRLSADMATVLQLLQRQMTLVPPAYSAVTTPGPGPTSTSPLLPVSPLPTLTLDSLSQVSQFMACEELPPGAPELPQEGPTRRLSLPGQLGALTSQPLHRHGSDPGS

Structure (SMILES): CC(Cn1c2ccccc2c2cccnc21)N(C)C (stereo not shown) [Example 1, N,N-dimethyl-1-(9H-pyrido[2,3-b]indol-9-yl)propan-2-amine]
- IC100 [1]: > 10 µM
- Sclerostin Inhibition Assay; improvement over sclerostin alone. (sclerostin): + (+ indicates an IC100 > 10 μM)
- hERG (1uM) (hERG potassium channel): + (+ indicates less than 50% inhibition of hERG tail current)
- IC100 (MC3T3 osteoblast cells): > 10 µM

Structure (SMILES): COc1ccc2c3ccnc(C)c3n(CC(C)N(C)C)c2c1 (stereo not shown) [Example 3, 1-(7-methoxy-1-methyl-9H-pyrido[3,4-b]indol-9-yl)-N,N-dimethylpropan-2-aminium formate]
- IC100 [1]: < 10 µM
- Sclerostin Inhibition Assay; improvement over sclerostin alone. (sclerostin): ++ (++ indicates an IC100 < 10 μM)
- hERG (1uM) (hERG potassium channel): + (+ indicates less than 50% inhibition of hERG tail current)
- IC100 (MC3T3 osteoblast cells): < 10 µM

Structure (SMILES): Cc1nccc2c3ccc(O)cc3n(CC(C)N(C)C)c12 (stereo not shown) [Example 4, 9-(2-(dimethylamino)propyl)-1-methyl-9H-pyrido[3,4-b]indol-7-ol]
- IC100 [1]: < 10 µM
- Sclerostin Inhibition Assay; improvement over sclerostin alone. (sclerostin): ++ (++ indicates an IC100 < 10 μM)
- hERG (1uM) (hERG potassium channel): + (+ indicates less than 50% inhibition of hERG tail current)
- IC100 (MC3T3 osteoblast cells): < 10 µM

Structure (SMILES): COc1ccc2c3ccnc(C)c3n(CC(C)N3CCOCC3)c2c1 (stereo not shown) [Example 8, 4-(1-(7-methoxy-1-methyl-9H-pyrido[3,4-b]indol-9-yl)propan-2-yl) morpholine]
- IC100 [1]: < 10 µM
- Sclerostin Inhibition Assay; improvement over sclerostin alone. (sclerostin): ++ (++ indicates an IC100 < 10 μM)
- hERG (1uM) (hERG potassium channel): + (+ indicates less than 50% inhibition of hERG tail current)
- IC100 (MC3T3 osteoblast cells): < 10 µM

Structure (SMILES): COc1ccc2c3ccnc(C)c3n(CC(C)N3CCCCC3)c2c1 (stereo not shown) [Example 9, 7-methoxy-1-methyl-9-(2-(piperidin-1-yl)propyl)-9H-pyrido[3,4-b]indole]
- IC100 [1]: < 10 µM
- Sclerostin Inhibition Assay; improvement over sclerostin alone. (sclerostin): ++ (++ indicates an IC100 < 10 μM)
- hERG (1uM) (hERG potassium channel): + (+ indicates less than 50% inhibition of hERG tail current)
- IC100 (MC3T3 osteoblast cells): < 10 µM

Structure (SMILES): COc1ccc2c3ccnc(C)c3n(CCN3CCCCC3)c2c1 [Example 10, 7-methoxy-1-methyl-9-(2-(piperidin-1-yl)ethyl)-9H-pyrido[3,4-b]indole]
- IC100 [1]: < 10 µM
- Sclerostin Inhibition Assay; improvement over sclerostin alone. (sclerostin): ++ (++ indicates an IC100 < 10 μM)
- hERG (1uM) (hERG potassium channel): + (+ indicates less than 50% inhibition of hERG tail current)
- IC100 (MC3T3 osteoblast cells): < 10 µM

Structure (SMILES): COc1ccc2c3ccnc(C)c3n(CCCN3CCOCC3)c2c1 [Example 11, 4-(3-(7-methoxy-1-methyl-9H-pyrido[3,4-b]indol-9-yl)propyl)morpholine formate]
- IC100 [1]: < 10 µM
- Sclerostin Inhibition Assay; improvement over sclerostin alone. (sclerostin): ++ (++ indicates an IC100 < 10 μM)
- hERG (1uM) (hERG potassium channel): + (+ indicates less than 50% inhibition of hERG tail current)
- IC100 (MC3T3 osteoblast cells): < 10 µM

Structure (SMILES): COc1ccc2c3ccnc(C)c3n(CCN3CCOCC3)c2c1 [Example 12, 4-(2-(7-methoxy-1-methyl-9H-pyrido[3,4-b]indol-9-yl)ethyl)morpholine]
- IC100 [1]: < 10 µM
- Sclerostin Inhibition Assay; improvement over sclerostin alone. (sclerostin): ++ (++ indicates an IC100 < 10 μM)
- hERG (1uM) (hERG potassium channel): + (+ indicates less than 50% inhibition of hERG tail current)
- IC100 (MC3T3 osteoblast cells): < 10 µM

Structure (SMILES): Cc1nccc2c3ccc(O)cc3n(CCN3CCOCC3)c12 [Example 13, 1-methyl-9-(2-morpholinoethyl)-9H-pyrido[3,4-b]indol-7-ol]
- IC100 [1]: < 10 µM
- Sclerostin Inhibition Assay; improvement over sclerostin alone. (sclerostin): ++ (++ indicates an IC100 < 10 μM)
- hERG (1uM) (hERG potassium channel): + (+ indicates less than 50% inhibition of hERG tail current)
- IC100 (MC3T3 osteoblast cells): < 10 µM

Structure (SMILES): COc1ccc2c3ccnc(C)c3n(CCCN3CCN(C(=O)OC(C)(C)C)CC3)c2c1 [Example 15, t-butyl 4-(3-(7-methoxy-1-methyl-9H-pyrido[3,4-b]indol-9-yl)propyl) piperazine-1-carboxylate]
- IC100 [1]: < 10 µM
- Sclerostin Inhibition Assay; improvement over sclerostin alone. (sclerostin): ++ (++ indicates an IC100 < 10 μM)
- hERG (1uM) (hERG potassium channel): ++ (++ indicates more than 50% inhibition of hERG tail current)
- IC100 (MC3T3 osteoblast cells): < 10 µM
